The source made the active and inactive calls. The calls are words filed in the database; no cut-off is given here.
Assays:
Mus musculus [1] = assay: Minimum dose required for anticonvulsant activity when given i.p., at 0.5 hr in mice upon subcutaneous pentylenetetrazole seizure; type: functional
Rattus norvegicus [2] = assay: Number of rats protected at a dose of 30 mg/Kg when given oral at 0.5 hr upon maximal electroshock seizure; Total number of rats = 4; type: functional
Rattus norvegicus [3] = assay: Number of rats protected at a dose of 30 mg/Kg when given oral at 0.25 hr upon maximal electroshock seizure; Total number of rats = 4; type: functional
Mus musculus [4] = assay: Minimum dose required for anticonvulsant activity when given i.p., at 4 hr in mice upon maximal electroshock seizure; type: functional
Mus musculus [5] = assay: Minimum dose required for anticonvulsant activity when given i.p., at 0.5 hr in mice upon neurotoxicity seizure using rotarod test; type: functional
Mus musculus [6] = assay: Post treatment activity score for CNS study using a actophotometer at a dose of 100 mg/Kg after 0.5 hr when given i.p., in mice (No. of animals 6); Control (24h before) 372
Mus musculus [7] = assay: Minimum dose required for anticonvulsant activity when given i.p., at 0.5 hr in mice upon maximal electroshock seizure; type: functional
Mus musculus [8] = assay: Minimum dose required for anticonvulsant activity when given i.p., at 2 hr in mice upon subcutaneous strychnine seizure; type: functional
Rattus norvegicus [9] = assay: Number of rats protected at a dose of 30 mg/Kg when given oral at 1 hr upon maximal electroshock seizure; Total number of rats = 4; type: functional
Rattus norvegicus [10] = assay: Number of rats protected at a dose of 30 mg/Kg when given oral at 4 hr upon maximal electroshock seizure; Total number of rats = 4; type: functional
Mus musculus [11] = assay: Post treatment activity score for CNS study using a actophotometer at a dose of 100 mg/Kg after 1 h when given i.p., in mice (No. of animals 6); Control (24h before) 372
Mus musculus [12] = assay: Minimum dose required for anticonvulsant activity when given i.p., at 0.5 hr in mice upon subcutaneous strychnine seizure; type: functional
Rattus norvegicus [13] = assay: Number of rats protected at a dose of 30 mg/Kg when given oral at 2 hr upon maximal electroshock seizure; Total number of rats = 4; type: functional
Mus musculus [14] = assay: Post treatment activity score for CNS study using a actophotometer at a dose of 100 mg/Kg after 0.5 hr when given i.p., in mice (No. of animals 6); Control (24h before) 270
Mus musculus [15] = assay: Post treatment activity score for CNS study using a actophotometer at a dose of 100 mg/Kg after 1 hr when given i.p., in mice (No. of animals 6); Control (24h before) 270
Rattus norvegicus [16] = assay: Minimum dose required for anticonvulsant activity when given i.p., at 2 hr in mice upon subcutaneous strychnine seizure; Absence of activity; type: functional, organism-based; conditions: Mus musculus
Rattus norvegicus [17] = assay: Number of rats protected at a dose of 30 mg/Kg when given oral at 4 hr upon maximal electroshock seizure; Total number of rats = 4; Absence of activity; type: functional, organism-based
Rattus norvegicus [18] = assay: Number of rats protected at a dose of 30 mg/Kg when given oral at 2 hr upon maximal electroshock seizure; Total number of rats = 4; Absence of activity; type: functional, organism-based
Rattus norvegicus [19] = assay: Number of rats protected at a dose of 30 mg/Kg when given oral at 0.25 hr upon maximal electroshock seizure; Total number of rats = 4; Absence of activity; type: functional, organism-based
Rattus norvegicus [20] = assay: Number of rats protected at a dose of 30 mg/Kg when given oral at 0.5 hr upon maximal electroshock seizure; Total number of rats = 4; Absence of activity; type: functional, organism-based
Mus musculus [21] = assay: Post treatment immobility time for CNS study using Porsolt's swimpool test at a dose of 100 mg/Kg after 1 hr when given i.p., in mice (No. of animals 6); Control (24h before) 131
Rattus norvegicus [22] = assay: Number of rats protected at a dose of 30 mg/Kg when given oral at 1 hr upon maximal electroshock seizure; Total number of rats = 4; Absence of activity; type: functional, organism-based
Mus musculus [23] = assay: Post treatment immobility time for CNS study using Porsolt's swimpool test at a dose of 100 mg/Kg after 1 hr when given i.p., in mice (No. of animals 6); Control (24h before) 159
Mus musculus [24] = assay: Post treatment activity score for CNS study using a actophotometer at a dose of 100 mg/Kg after 0.5 hr when given i.p., in mice (No. of animals 6); Control (24h before) 214
Mus musculus [25] = assay: Post treatment activity score for CNS study using a actophotometer at a dose of 100 mg/Kg after 1 h when given i.p., in mice (No. of animals 6); Control (24h before) 214
Mus musculus [26] = assay: Minimum dose required for anticonvulsant activity when given i.p., in mice upon neurotoxicity seizure using rotarod test
Rattus norvegicus [27] = organism: Rattus norvegicus; assay: Protective index between effective dose and toxic dose in rat; type: functional
Rattus norvegicus [28] = assay: Toxic dose observed for anticonvulsant activity when given orally at 2 hr in rat upon neurotoxicity seizure; type: functional; conditions: po
Rattus norvegicus [29] = assay: Effective dose required for anticonvulsant activity when given orally at 2 h in rat upon maximal electroshock seizure; type: functional; conditions: po
Mus musculus [30] = assay: Post treatment activity score for CNS study using a actophotometer at a dose of 100 mg/Kg after 0.5 hr when given i.p., in mice (No. of animals 6); Control (24h before) 280
Mus musculus [31] = assay: Post treatment activity score for CNS study using a actophotometer at a dose of 100 mg/Kg after 1 hr when given i.p., in mice (No. of animals 6); Control (24h before) 280
Mus musculus [32] = assay: Post treatment activity score for CNS study using a actophotometer at a dose of 100 mg/Kg after 0.5 hr when given i.p., in mice (No. of animals 6); Control (24h before) 201
Mus musculus [33] = assay: Post treatment activity score for CNS study using a actophotometer at a dose of 100 mg/Kg after 1 hr when given i.p., in mice (No. of animals 6); Control (24h before) 201
Rattus norvegicus [34] = assay: Enzymatic activity to assess the increase in level of SGOT at a dose of 30 mg/Kg for 14 days when given p.o., in 6 rats; Control 73.1; type: functional
Rattus norvegicus [35] = assay: Effective dose required for anticonvulsant activity when given i.p., at 2 hr in rat upon maximal electroshock seizure; type: functional; conditions: ip
Rattus norvegicus [36] = assay: Toxic dose observed for anticonvulsant activity when given i.p., at 2 hr in rat upon neurotoxicity seizure; type: functional; conditions: ip
Rattus norvegicus [37] = assay: Enzymatic activity to assess the increase in level of SGPT at a dose of 30 mg/Kg for 14 days when given p.o., in 6 rats; Control 45.0; type: functional
Mus musculus [38] = assay: Post treatment activity score for CNS study using a actophotometer at a dose of 100 mg/Kg after 1 hr when given i.p., in mice (No. of animals 6); Control (24h before) 247
Rattus norvegicus [39] = assay: Minimum dose required for anticonvulsant activity when given i.p., at 0.5 hr in mice upon subcutaneous pentylenetetrazole seizure; Absence of activity; type: functional, organism-based; conditions: Mus musculus
Rattus norvegicus [40] = assay: Minimum dose required for anticonvulsant activity when given i.p., in mice upon subcutaneous picrotoxin seizure; Absence of activity; type: functional, organism-based; conditions: Mus musculus
Mus musculus [41] = assay: Post treatment activity score for CNS study using a actophotometer at a dose of 100 mg/Kg after 0.5 hr when given i.p., in mice (No. of animals 6); Control (24h before) 247

| SMILES | PTZ seizure (Mus musculus [1]) | Activity (Rattus norvegicus [2]) | Activity (Rattus norvegicus [3]) | MES (Mus musculus [4]) | NT (Mus musculus [5]) | MES (Mus musculus [7]) | STY seizure (Mus musculus [8]) | Activity (Rattus norvegicus [9]) | Activity (Rattus norvegicus [10]) | STY seizure (Mus musculus [12]) | Activity (Rattus norvegicus [13]) | other results |
| --- | --- | --- | --- | --- | --- | --- | --- | --- | --- | --- | --- | --- |
| Cc1ccc2[nH]c(O)c(/N=N/C(=O)Nc3c(C)cccc3C)c2c1 | 300 mg/kg | 1 | 1 | 300 mg/kg | 300 mg/kg | 100 mg/kg | 100 mg/kg | 3 | 3 | 30 mg/kg | 3 | Activity (Mus musculus [6]): 355; Activity (Mus musculus [11]): 368 |
| Cc1cccc(C)c1NC(=O)/N=N/c1c(O)[nH]c2ccccc12 | – | 2 | 2 | 300 mg/kg | 300 mg/kg | 100 mg/kg | 100 mg/kg | 1 | 3 | 30 mg/kg | 1 | Activity (Mus musculus [14]): 224; Activity (Mus musculus [15]): 217 |
| NC(=O)N1c2ccccc2C=Cc2ccccc21 [CARBAMAZEPINE] | 100 mg/kg | – | – | 100 mg/kg | 100 mg/kg | 30 mg/kg | – | – | – | – | – | STY seizure (Rattus norvegicus [16]): inactive; Activity (Rattus norvegicus [17]): inactive; Activity (Rattus norvegicus [18]): inactive; Activity (Rattus norvegicus [19]): inactive; Activity (Rattus norvegicus [20]): inactive; Activity (Mus musculus [21]): 207; Activity (Rattus norvegicus [22]): inactive |
| CC(=O)C/C(C)=N\NC(=O)Nc1c(C)cccc1C | 300 mg/kg | 4 | 2 | 300 mg/kg | 300 mg/kg | 100 mg/kg | 300 mg/kg | 2 | 4 | 100 mg/kg | 4 | Activity (Mus musculus [23]): 228; Activity (Mus musculus [24]): 127; Activity (Mus musculus [25]): 144; NT (Mus musculus [26]): 300 mg/kg; PI (Rattus norvegicus [27]): >10.8; TD50 (Rattus norvegicus [28]): > 216 mg/kg; ED50 (Rattus norvegicus [29]): 19.8 mg/kg |
| Cc1cccc(C)c1NC(=O)/N=N/c1c(O)[nH]c2ccc(Cl)cc12 | 300 mg/kg | 1 | 1 | 300 mg/kg | 300 mg/kg | 100 mg/kg | 100 mg/kg | 0 | 1 | 30 mg/kg | 1 | Activity (Mus musculus [30]): 263; Activity (Mus musculus [31]): 267 |
| Cc1cccc(C)c1NC(=O)/N=N/c1c(O)[nH]c2ccc(Br)cc12 | – | 1 | 1 | 300 mg/kg | 300 mg/kg | 100 mg/kg | 100 mg/kg | 0 | 0 | 30 mg/kg | 2 | Activity (Mus musculus [32]): 172; Activity (Mus musculus [33]): 176 |
| O=C1NC(=O)C(c2ccccc2)(c2ccccc2)N1 [PHENYTOIN] | – | 4 | 1 | 30 mg/kg | 100 mg/kg | 30 mg/kg | – | 3 | 3 | – | 3 | STY seizure (Rattus norvegicus [16]): inactive; SGOT activity (Rattus norvegicus [34]): 84.1 units/mL; ED50 (Rattus norvegicus [35]): 6.48 mg/kg; TD50 (Rattus norvegicus [36]): 42.8 mg/kg; NT (Mus musculus [26]): 100 mg/kg; SGPT activity (Rattus norvegicus [37]): 52.6 units/mL; Activity (Mus musculus [38]): 106; TD50 (Rattus norvegicus [28]): > 500 mg/kg; PTZ seizure (Rattus norvegicus [39]): inactive; PIC seizure (Rattus norvegicus [40]): inactive; Activity (Mus musculus [41]): 104 |

Reference: ChEMBL document CHEMBL1141099, “Discovery of N-(2,6-dimethylphenyl)-substituted semicarbazones as anticonvulsants: hybrid pharmacophore-based design” (2005)
